Source: PMC6193938, “Characterization of a novel AICARFT inhibitor which potently elevates ZMP and has anti-tumor activity in murine models” (Scientific Reports, 2018)

Key:
[1] = tested on: cell lines of Table 1; experiment: Alamar Blue proliferation assay, average over cell lines; format: cell-based; settings: Homo sapiens
Description: Cells lines were acquired from cell banks, see supplemental material, grown using the cell banks recommended culture conditions (Supplemental Table 3). In some experiments noted “low folate” the cells were washed and grown in folate free RPMI-1640 media (Gibco #27016-021) supplemented with 5 ml 1 M Hepes, 5 ml 100 mM Na pyruvate, 2.5 mg/ml glucose and 10% defined FBS (Hyclone #SH30070) per 500 mL media for 5–7 days to deplete intracellular folate levels prior to the start of the experiment. Where noted, cells were maintained in complete “high folate” RPMI-1640 media (ATCC #30-2001) with 10% defined FBS to contrast with the low folate conditions.
Cells were cultured using recommended culture conditions unless noted otherwise (Supplemental Table 3). Cells were plated, dosed with compound and incubated at 37 °C for approximately 2 doubling times as determined for each cell line. Cell Titer Glo (Promega) assay was used to measure proliferation according to manufacturer’s recommendations by measuring luminescence with Flexstation3 (Molecular Devices) with 500 ms integration time. […]
For a limited number of cell lines, compound dosing was performed under high or low folate conditions with cell viability being determined with Alamar Blue rather than an ATP dependent assay. […] The % inhibition for each sample was calculated and fit as described above.

[2] = tested on: A9 murine tumors; experiment: Pharmacodynamic response of tumor metabolites, single PO dose, standard chow; format: in vivo, mouse
Description: (§1) Figure 4 Pharmacodynamic response of ZMP (purple), AICAR (blue), […] (green), dUMP (red), AMP (aqua) & GMP (orange) metabolites in tumors following a single PO dose of LSN3213128 in athymic nude mice.

[3] = tested on: MDA-MB-231met2 xenografts; experiment: as above; format: in vivo, mouse
Description: as §1

[4] = tested on: MDA-MB-231met2 xenograft; experiment: Antitumor efficacy and tumor metabolites, mouse xenograft; format: in vivo; settings: after 22 days of dosing
[5] = tested on: AMPK T172 phosphorylation in A9 tumors; experiment: Western analysis of tumors; format: in vivo, mouse; settings: 100 mg/kg x12 PO
[6] = molecular target: T1, AURA (Homo sapiens, UniProt O14965); experiment: CEREP protein kinase assay; format: biochemical
T1 construct: purchased CEREP Panlabs (Eurofins)
T1 sequence (O14965 1-403): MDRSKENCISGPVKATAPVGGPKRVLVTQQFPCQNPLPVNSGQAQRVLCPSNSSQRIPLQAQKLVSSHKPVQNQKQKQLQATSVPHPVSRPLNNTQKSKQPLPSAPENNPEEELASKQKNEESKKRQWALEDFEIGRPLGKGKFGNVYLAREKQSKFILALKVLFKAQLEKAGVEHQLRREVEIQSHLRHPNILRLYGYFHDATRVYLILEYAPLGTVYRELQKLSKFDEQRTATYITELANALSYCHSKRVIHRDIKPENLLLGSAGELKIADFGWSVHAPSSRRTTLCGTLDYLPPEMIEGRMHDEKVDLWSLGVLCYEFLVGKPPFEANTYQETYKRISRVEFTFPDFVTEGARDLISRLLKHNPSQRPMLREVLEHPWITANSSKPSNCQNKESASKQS

[7] = molecular target: T2, CK2 (Homo sapiens, UniProt P68400); experiment: CEREP protein kinase assay; format: biochemical
T2 construct: purchased CEREP Panlabs (Eurofins)

[8] = molecular target: T3, HIPK2 (Homo sapiens, UniProt Q9H2X6); experiment: CEREP protein kinase assay; format: biochemical
T3 construct: purchased CEREP Panlabs (Eurofins)

[9] = molecular target: T4, IKKe (Homo sapiens, UniProt Q14164); experiment: CEREP protein kinase assay; format: biochemical
T4 construct: purchased CEREP Panlabs (Eurofins)
T4 sequence (Q14164 1-716): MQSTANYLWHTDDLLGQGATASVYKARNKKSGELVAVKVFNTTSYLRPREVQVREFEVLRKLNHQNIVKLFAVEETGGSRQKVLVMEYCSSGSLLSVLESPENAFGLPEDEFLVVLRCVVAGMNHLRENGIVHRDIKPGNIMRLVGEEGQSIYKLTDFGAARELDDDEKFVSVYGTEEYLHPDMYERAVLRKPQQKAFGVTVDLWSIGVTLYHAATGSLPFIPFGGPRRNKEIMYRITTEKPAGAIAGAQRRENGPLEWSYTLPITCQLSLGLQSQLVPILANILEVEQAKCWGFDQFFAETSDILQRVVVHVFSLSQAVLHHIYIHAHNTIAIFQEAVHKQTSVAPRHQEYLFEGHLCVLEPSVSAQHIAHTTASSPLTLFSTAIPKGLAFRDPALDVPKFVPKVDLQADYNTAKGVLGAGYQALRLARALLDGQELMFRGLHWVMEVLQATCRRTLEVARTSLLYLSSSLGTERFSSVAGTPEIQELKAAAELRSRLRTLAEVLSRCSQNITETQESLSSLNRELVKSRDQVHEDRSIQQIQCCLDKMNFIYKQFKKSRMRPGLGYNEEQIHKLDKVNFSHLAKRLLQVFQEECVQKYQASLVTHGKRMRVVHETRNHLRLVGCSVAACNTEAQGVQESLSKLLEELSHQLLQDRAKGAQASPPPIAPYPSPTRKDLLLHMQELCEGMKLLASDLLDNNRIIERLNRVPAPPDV

[10] = molecular target: T5, LIMK1 (Homo sapiens, UniProt P53667); experiment: CEREP protein kinase assay; format: biochemical
T5 construct: purchased CEREP Panlabs (Eurofins)

[11] = molecular target: T6, PLK3 (Homo sapiens, UniProt Q9H4B4); experiment: CEREP protein kinase assay; format: biochemical
T6 construct: purchased CEREP Panlabs (Eurofins)

[12] = MDA-MB-231met2 tumors, 4 h post treatment

T3 sequence (Q9H2X6 whole entry): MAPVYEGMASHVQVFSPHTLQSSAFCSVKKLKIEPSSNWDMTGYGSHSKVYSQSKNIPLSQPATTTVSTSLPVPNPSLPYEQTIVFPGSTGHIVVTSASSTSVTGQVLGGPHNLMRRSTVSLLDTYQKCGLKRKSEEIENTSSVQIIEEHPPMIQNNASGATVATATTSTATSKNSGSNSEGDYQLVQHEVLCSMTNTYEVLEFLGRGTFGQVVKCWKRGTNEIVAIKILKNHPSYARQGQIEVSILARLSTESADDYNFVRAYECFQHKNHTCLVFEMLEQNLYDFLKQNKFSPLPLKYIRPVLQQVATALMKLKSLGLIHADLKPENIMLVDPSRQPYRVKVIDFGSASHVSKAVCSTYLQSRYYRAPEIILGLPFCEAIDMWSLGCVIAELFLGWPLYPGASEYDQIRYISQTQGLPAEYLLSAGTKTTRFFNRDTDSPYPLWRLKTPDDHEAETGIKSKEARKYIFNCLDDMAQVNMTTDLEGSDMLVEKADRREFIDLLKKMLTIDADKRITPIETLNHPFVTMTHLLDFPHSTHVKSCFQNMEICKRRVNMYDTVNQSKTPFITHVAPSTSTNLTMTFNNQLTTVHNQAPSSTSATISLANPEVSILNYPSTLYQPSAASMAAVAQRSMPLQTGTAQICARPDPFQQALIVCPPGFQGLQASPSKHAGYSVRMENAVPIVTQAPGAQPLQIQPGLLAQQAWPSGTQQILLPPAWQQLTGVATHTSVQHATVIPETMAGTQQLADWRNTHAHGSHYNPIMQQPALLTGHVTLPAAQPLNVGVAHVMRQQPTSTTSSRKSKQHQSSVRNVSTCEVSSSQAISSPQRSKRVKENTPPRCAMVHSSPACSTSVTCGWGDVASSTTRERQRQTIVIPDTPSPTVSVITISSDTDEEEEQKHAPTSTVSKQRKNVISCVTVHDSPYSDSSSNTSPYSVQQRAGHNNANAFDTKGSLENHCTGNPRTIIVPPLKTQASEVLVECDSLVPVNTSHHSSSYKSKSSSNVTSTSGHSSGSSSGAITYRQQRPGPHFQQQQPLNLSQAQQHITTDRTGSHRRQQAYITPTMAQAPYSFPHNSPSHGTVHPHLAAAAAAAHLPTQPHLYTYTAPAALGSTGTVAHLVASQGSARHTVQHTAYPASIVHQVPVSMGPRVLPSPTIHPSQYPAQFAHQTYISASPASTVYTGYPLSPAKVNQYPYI
T5 sequence (P53667 whole entry): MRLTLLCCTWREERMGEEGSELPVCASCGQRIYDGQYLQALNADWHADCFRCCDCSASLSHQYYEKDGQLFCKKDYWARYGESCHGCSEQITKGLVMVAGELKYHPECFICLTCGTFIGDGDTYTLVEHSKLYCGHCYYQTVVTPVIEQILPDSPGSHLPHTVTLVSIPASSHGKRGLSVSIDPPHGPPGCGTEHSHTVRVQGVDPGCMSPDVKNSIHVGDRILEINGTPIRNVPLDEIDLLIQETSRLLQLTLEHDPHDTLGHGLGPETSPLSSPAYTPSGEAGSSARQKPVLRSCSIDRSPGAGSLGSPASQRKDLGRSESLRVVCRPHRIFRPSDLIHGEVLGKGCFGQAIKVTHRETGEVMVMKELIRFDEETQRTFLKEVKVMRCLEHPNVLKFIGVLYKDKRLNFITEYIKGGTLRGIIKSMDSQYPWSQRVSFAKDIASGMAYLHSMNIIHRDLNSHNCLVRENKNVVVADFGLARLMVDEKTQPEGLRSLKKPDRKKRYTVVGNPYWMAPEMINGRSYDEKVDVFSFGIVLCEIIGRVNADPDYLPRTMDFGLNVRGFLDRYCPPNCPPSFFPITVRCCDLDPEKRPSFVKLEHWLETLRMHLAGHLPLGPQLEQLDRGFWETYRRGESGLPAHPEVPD
T6 sequence (Q9H4B4 whole entry): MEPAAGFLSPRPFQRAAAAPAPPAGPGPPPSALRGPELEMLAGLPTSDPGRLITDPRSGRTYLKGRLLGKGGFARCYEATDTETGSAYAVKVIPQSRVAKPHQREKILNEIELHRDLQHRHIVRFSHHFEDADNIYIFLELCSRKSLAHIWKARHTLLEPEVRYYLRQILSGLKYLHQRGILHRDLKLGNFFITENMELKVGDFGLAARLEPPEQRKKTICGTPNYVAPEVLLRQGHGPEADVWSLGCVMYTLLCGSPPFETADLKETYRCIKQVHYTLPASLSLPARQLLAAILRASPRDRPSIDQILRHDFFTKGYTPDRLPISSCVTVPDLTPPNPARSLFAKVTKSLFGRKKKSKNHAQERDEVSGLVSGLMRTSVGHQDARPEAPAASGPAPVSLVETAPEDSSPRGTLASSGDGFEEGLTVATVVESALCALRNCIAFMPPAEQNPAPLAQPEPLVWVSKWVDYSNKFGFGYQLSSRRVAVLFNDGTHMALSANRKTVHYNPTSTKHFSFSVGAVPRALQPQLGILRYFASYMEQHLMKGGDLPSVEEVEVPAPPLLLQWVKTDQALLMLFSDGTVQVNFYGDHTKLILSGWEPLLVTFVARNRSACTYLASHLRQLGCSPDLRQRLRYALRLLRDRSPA
T2 sequence (P68400 whole entry): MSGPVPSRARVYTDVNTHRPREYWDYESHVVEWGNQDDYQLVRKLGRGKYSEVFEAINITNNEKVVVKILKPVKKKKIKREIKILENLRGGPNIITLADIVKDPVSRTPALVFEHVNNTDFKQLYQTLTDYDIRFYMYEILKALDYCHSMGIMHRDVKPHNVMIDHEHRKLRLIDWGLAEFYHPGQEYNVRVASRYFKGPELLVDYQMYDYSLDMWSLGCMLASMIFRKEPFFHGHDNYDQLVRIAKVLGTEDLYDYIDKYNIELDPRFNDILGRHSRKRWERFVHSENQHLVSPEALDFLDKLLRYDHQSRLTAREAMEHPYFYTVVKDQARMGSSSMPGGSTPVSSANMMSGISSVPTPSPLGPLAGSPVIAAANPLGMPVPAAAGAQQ

With `O=c1[nH]ccc2cc(F)c(NS(=O)(=O)c3ccc(N4CC[C@@H](O)C4)s3)cc12` [LSN3213128, N-(6-Fluoro-1-oxo-1,2-dihydroisoquinolin-7-yl)-5-[(3R)-3-hydroxypyrrolidin-1-yl]thiophene-2-sulfonamide] the GI50 ([1]; low folate, 12 cell lines) was 4.4 ± 4.5 nM, the GI50 ([1]; regular RPMI, 11 cell lines) was 2400 nM and the “dose after which tumor ZMP response appeared to saturate” value ([2]; nude mice on standard chow, 4 h post PO dose) was 30 mg/kg. The “tumor dUMP levels” value ([2]; standard chow, 4 h, up to 100 mg/kg) was “did not rise”, the “change in tumor ZMP” value [3, 12] was 15 fold and the “change in tumor purine levels (AMP and GMP)” value [3, 12] was “twofold”. For the same compound, the “dose at which tumor ZMP response appeared to saturate” value ([3]; MDA-MB-231met2 xenografts, nude mice on standard chow, 4 h post PO dose) was 10 mg/kg, the “tumor dUMP levels” value ([3]; MDA-MB-231met2 xenografts, standard chow, 4 h, up to 100 mg/kg) was “did not rise” and the “tumor ZTP” value ([4]; MDA-MB-231met2 tumors) was “No detectable changes”. The “tumor ZMP levels” value ([4]; MDA-MB-231 met2 tumors, 30 and 60 mg/kg) was “dramatically elevated”, the “AMPK T172 phosphorylation levels in vivo” value [5] was “showed no change” and the inhibition at 0.2 µM ([6]; @ 0.2 uM) was -4.11%. For the same compound, the inhibition at 2 µM ([6]; @ 2 uM) was 1.86%, the inhibition at 20 µM ([6]; @ 20 uM) was 4.28% and the inhibition at 0.2 µM ([7]; @ 0.2 uM) was -7.53%. For the same compound, the inhibition at 2 µM ([7]; @ 2 uM) was -0.227%, the inhibition at 20 µM ([7]; @ 20 uM) was 1.58% and the inhibition at 0.2 µM ([8]; @ 0.2 uM) was -9.39%. It also gave an inhibition at 2 µM ([8]; @ 2 uM) of 6.25%, an inhibition at 20 µM ([8]; @ 20 uM) of 14.1% and an inhibition at 0.2 µM ([9]; @ 0.2 uM) of -0.0712%. For the same compound, the inhibition at 2 µM ([9]; @ 2 uM) was 8.91%, the inhibition at 20 µM ([9]; @ 20 uM) was 11.7% and the inhibition at 0.2 µM ([10]; @ 0.2 uM) was -7.18%. The inhibition at 2 µM ([10]; @ 2 uM) was 5.89%, the inhibition at 20 µM ([10]; @ 20 uM) was 0.523% and the inhibition at 0.2 µM ([11]; @ 0.2 uM) was 13.4%. For the same compound, the inhibition at 2 µM ([11]; @ 2 uM) was 12% and the inhibition at 20 µM ([11]; @ 20 uM) was 60.5%.
